Reference: ChEMBL document CHEMBL4340536, “Design, synthesis and structure-activity relationship study of aminopyridine derivatives as novel inhibitors of Janus kinase 2” (Bioorg Med Chem Lett, 2019)
Activity calls are given as the source filed them. The rule behind the calls is not given here.

Tests used:
HEL = assay: Antiproliferative activity against HEL cells harboring JAK2 V617F mutant measured after 3 days by CCK8 assay; format: functional, cell-based; settings: Homo sapiens, 72 h
Homo sapiens [1] = species on record: Homo sapiens; assay: (§1) Selectivity ratio of IC50 for human recombinant C-terminal hexahistidine tagged JAK3 JH1 catalytic domain (811 to 1124 residues) expressed in baculovirus infected Sf9 cells to IC50 for human recombinant N-terminal hexahistidine tagged JAK2 JH1 catalytic domain (835 to 1132 residues) expressed in baculovirus infected Sf9 cells
[2] = biological target: Tyrosine-protein kinase JAK1 (Homo sapiens, UniProt P23458); assay: Inhibition of human recombinant N-terminal hexahistidine tagged JAK1 JH1 catalytic domain (854 to 1154 residues) expressed in baculovirus infected Sf9 cells using Tyr6 peptide as substrate incubated for 30 secs under shaking condition measured after 1 hr by Z'-LYTE assay
Sequence of Tyrosine-protein kinase JAK1 (P23458 whole entry, the tested form may be a part): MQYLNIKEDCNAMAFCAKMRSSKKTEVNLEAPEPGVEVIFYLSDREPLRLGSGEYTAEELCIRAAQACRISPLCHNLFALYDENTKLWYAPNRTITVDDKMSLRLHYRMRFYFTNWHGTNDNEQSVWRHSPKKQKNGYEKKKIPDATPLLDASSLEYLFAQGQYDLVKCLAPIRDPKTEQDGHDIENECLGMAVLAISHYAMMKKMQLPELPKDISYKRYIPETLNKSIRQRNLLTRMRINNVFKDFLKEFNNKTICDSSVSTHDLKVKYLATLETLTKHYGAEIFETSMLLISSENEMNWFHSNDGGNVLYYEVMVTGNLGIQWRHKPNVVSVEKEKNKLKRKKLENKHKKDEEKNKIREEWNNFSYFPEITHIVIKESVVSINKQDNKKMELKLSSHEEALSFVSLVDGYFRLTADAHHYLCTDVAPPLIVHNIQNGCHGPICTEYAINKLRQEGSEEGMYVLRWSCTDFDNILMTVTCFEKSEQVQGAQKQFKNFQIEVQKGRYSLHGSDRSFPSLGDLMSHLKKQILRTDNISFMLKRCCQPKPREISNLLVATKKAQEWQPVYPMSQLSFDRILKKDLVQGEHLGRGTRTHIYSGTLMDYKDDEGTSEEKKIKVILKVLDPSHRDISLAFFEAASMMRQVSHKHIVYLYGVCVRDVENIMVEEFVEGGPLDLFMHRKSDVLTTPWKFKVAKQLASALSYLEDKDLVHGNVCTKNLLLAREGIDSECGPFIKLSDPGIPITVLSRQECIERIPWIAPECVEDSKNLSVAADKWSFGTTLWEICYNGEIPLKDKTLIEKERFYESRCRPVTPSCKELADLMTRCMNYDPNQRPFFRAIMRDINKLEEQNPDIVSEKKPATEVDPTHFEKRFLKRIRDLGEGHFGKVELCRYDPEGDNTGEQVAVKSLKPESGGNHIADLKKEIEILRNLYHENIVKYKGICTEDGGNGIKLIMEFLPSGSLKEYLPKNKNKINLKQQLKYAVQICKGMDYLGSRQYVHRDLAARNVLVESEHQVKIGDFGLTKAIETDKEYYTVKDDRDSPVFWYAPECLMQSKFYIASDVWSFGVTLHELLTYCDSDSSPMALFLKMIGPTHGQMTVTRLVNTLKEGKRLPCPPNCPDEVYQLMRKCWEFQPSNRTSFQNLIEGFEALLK

[3] = biological target: T1, Tyrosine-protein kinase JAK2 (Homo sapiens, UniProt O60674); assay: Inhibition of human recombinant N-terminal hexahistidine tagged JAK2 JH1 catalytic domain (835 to 1132 residues) expressed in baculovirus infected Sf9 cells using Tyr6 peptide as substrate incubated for 30 secs under shaking condition measured after 1 hr by Z'-LYTE assay
T1 sequence (O60674 whole entry, the tested form may be a part): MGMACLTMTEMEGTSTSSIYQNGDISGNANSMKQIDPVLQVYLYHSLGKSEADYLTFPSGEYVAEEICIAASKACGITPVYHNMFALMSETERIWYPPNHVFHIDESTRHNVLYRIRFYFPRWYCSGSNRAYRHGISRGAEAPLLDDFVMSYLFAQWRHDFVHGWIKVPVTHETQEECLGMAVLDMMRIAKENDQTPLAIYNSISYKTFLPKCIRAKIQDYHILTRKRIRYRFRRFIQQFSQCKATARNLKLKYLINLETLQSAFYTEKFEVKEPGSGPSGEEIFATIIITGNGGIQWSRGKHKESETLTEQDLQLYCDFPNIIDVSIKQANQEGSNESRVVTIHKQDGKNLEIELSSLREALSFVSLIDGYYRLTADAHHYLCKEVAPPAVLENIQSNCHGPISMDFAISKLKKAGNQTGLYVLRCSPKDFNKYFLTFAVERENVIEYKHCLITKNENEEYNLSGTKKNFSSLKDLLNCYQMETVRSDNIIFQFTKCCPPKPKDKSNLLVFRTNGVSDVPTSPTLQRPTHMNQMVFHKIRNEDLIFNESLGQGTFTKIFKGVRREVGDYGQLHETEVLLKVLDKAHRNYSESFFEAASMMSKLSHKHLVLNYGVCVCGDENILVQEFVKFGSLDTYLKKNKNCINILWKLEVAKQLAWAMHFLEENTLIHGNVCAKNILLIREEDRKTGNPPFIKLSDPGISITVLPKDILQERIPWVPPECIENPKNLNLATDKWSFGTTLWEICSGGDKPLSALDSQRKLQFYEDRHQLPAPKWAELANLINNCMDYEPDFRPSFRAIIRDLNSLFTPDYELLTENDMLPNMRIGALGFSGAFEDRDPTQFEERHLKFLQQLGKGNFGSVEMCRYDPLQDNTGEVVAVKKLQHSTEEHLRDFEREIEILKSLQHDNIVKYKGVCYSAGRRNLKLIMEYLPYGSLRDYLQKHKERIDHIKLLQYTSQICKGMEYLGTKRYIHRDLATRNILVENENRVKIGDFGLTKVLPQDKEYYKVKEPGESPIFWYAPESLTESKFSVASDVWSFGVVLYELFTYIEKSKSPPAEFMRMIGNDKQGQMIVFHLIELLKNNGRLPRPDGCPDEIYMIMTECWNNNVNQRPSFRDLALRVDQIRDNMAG

[4] = biological target: T2, Tyrosine-protein kinase JAK3 (Homo sapiens, UniProt P52333); assay: Inhibition of human recombinant C-terminal hexahistidine tagged JAK3 JH1 catalytic domain (811 to 1124 residues) expressed in baculovirus infected Sf9 cells using Tyr6 peptide as substrate incubated for 30 secs under shaking condition measured after 1 hr by Z'-LYTE assay
T2 sequence (P52333 whole entry): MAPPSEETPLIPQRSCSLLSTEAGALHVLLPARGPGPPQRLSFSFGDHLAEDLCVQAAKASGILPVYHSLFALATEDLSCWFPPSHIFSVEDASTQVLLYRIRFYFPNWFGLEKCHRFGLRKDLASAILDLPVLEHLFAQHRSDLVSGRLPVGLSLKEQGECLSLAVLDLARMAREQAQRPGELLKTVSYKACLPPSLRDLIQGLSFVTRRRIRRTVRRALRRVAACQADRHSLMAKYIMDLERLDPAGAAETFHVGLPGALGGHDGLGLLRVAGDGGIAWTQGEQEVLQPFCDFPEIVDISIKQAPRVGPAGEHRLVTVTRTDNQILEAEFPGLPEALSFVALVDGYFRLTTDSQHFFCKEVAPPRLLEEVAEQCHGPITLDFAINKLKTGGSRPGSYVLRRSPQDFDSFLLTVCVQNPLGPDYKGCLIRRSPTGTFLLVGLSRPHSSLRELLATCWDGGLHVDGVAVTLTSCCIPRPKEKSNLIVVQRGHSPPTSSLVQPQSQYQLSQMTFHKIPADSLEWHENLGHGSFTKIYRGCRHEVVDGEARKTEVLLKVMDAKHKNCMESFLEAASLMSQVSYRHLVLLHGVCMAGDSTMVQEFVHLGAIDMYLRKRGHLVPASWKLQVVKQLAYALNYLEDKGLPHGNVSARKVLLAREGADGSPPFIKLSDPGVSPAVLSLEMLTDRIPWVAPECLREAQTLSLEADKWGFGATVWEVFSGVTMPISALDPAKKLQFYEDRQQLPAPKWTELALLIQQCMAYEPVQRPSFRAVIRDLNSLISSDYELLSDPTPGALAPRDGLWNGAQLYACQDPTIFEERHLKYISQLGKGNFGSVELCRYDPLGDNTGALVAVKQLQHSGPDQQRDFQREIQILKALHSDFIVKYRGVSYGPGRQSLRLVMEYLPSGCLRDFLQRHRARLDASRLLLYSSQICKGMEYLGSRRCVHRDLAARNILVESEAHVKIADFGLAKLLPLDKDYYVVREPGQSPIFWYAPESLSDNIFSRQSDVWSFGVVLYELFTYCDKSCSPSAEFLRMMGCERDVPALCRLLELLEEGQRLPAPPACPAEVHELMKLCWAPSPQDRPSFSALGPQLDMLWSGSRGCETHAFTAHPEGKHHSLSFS

Homo sapiens [5] = species on record: Homo sapiens; assay: as §1, with “N-terminal” for “C-terminal”, “JAK1” for “JAK3”, “(854” for “(811”, “1154” for “1124”
Homo sapiens [6] = species on record: Homo sapiens; assay: Selectivity ratio of IC50 for TYK2 (unknown origin) to IC50 for human recombinant N-terminal hexahistidine tagged JAK2 JH1 catalytic domain (835 to 1132 residues) expressed in baculovirus infected Sf9 cells
[7] = biological target: Non-receptor tyrosine-protein kinase TYK2 (Homo sapiens, UniProt P29597); assay: Inhibition of TYK2 (unknown origin) using peptide as substrate preincubated for 10 mins followed by substrate addition by mobility shift assay
Sequence of Non-receptor tyrosine-protein kinase TYK2 (P29597 whole entry): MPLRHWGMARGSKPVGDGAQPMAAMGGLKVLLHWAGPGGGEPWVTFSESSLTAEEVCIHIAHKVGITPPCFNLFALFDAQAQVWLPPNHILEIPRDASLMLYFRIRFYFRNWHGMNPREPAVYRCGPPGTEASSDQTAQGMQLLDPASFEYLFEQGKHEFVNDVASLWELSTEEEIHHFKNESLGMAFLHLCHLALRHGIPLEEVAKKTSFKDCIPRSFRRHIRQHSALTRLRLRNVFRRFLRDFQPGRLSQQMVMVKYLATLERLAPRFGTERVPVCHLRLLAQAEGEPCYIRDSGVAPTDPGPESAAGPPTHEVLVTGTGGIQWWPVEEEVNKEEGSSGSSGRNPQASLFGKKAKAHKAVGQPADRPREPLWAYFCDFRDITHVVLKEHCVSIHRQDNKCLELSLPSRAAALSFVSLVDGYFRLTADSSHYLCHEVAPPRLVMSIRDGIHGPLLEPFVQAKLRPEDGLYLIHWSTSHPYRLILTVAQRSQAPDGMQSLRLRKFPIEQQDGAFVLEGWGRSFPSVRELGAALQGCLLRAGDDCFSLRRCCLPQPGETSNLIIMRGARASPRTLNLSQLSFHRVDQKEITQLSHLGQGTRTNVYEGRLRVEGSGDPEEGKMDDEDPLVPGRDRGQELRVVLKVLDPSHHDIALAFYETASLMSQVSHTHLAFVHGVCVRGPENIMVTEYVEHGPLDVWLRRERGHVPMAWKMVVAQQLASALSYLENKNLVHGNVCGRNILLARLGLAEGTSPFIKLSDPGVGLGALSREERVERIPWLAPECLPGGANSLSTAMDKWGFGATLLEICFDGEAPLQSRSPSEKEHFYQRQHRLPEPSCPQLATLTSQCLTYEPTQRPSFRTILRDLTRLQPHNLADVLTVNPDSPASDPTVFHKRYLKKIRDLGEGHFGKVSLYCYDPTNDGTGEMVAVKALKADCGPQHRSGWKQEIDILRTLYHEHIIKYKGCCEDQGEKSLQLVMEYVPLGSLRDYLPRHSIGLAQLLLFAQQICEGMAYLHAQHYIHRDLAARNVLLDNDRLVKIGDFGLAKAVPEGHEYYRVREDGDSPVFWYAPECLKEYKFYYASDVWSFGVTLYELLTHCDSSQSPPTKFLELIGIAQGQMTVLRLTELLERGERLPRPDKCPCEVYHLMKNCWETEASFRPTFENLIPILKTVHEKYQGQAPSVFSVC

[8] = biological target: T1, Tyrosine-protein kinase JAK2; settings: Sf9
[9] = biological target: T1, Tyrosine-protein kinase JAK2; assay: Inhibition of human recombinant N-terminal hexahistidine tagged JAK2 JH1 catalytic domain (835 to 1132 residues) expressed in baculovirus infected Sf9 cells at 1 uM using Tyr6 peptide as substrate incubated for 30 secs under shaking condition measured after 1 hr by Z'-LYTE assay relative to control
Rattus norvegicus [10] = assay: Antiarthritic activity in incomplete Freund's adjuvant-induced Wistar rat arthritic model assessed as decrease in arthritic incidences at 10 to 50 mg/kg, po administered daily for 28 days starting from 8 days post-immunization measured daily during compound dosing; format: functional, organism-based
Rattus norvegicus [11] = assay: Antiarthritic activity in incomplete Freund's adjuvant-induced Wistar rat arthritic model assessed as decrease in arthritis swelling score at 50 mg/kg, po administered daily for 28 days starting from 8 days post-immunization measured daily during compound dosing; format: functional, organism-based
[12] = Toxicity in incomplete Freund's adjuvant-induced Wistar rat arthritic model assessed as effect on body weight growth at 10 to 50 mg/kg, po administered daily for 28 days starting from 8 days post-immunization measured every 3 days during compound dosing; format: organism-based; settings: in vivo
Rattus norvegicus [13] = assay: Antiarthritic activity in po dosed incomplete Freund's adjuvant-induced Wistar rat arthritic model assessed as reduction in foot swelling administered daily for 28 days starting from 8 days post-immunization measured daily during compound dosing; format: functional, organism-based
Rattus norvegicus [14] = assay: Antiarthritic activity in incomplete Freund's adjuvant-induced arthritis model Wistar rat at 0.3 mg/kg, po administered daily for 28 days starting from 8 days post-immunization measured daily during compound; format: functional, organism-based
[15] = Toxicity in incomplete Freund's adjuvant-induced Wistar rat arthritic model assessed as effect on body weight growth at 0.3 mg/kg, po administered daily for 28 days starting from 8 days post-immunization measured every 3 days during compound dosing; format: organism-based; settings: in vivo

With `CC(Oc1cc(-c2cnn(C3CCNCC3)c2)cnc1N)c1c(Cl)cccc1Cl` (stereo not drawn) the IC50 (HEL) was 28400 nM.

With `COc1ccc(F)c(Cl)c1C(C)Oc1cc(-c2cnn(C3CCNCC3)c2)cnc1N` (stereo not drawn) the Ratio IC50 (Homo sapiens [1]) was 66, the IC50 [2] was 1220 nM and the IC50 [3] was 26 nM. The IC50 [4] was 1760 nM, the Ratio IC50 (Homo sapiens [5]) was 46 and the Ratio IC50 (Homo sapiens [6]) was 30. For the same compound, the IC50 [7] was 774 nM and the IC50 (HEL) was 13600 nM.

For `CC(Oc1cc(-c2cnn(C3CCNCC3)c2)cnc1N)c1ccccc1` (stereo not drawn), the IC50 [3] was 215 nM and the IC50 (HEL) was 29600 nM.

Work on `CC(Oc1cc(-c2cncc(N3CCNCC3)c2)cnc1N)c1c(Cl)ccc(F)c1Cl` (stereo not drawn) yielded an IC50 [3] of 119 nM and an IC50 (HEL) of 7450 nM.

`CC(Oc1cc(-c2ccc(N3CCNCC3)cc2)cnc1N)c1cc(F)ccc1Cl` (stereo not drawn) showed an IC50 (HEL) of 19700 nM.

In the case of `C[C@@H](Oc1cc(-c2cnn(C3CCNCC3)c2)cnc1N)c1c(Cl)ccc(F)c1Cl` [CRIZOTINIB], the ΔTm [8] is reported as 7.88 °C and the IC50 (HEL) is reported as 4720 nM.

For `CC(Oc1cc(-c2cnn(C3CCOCC3)c2)cnc1N)c1c(Cl)ccc(F)c1Cl` (stereo not drawn), the IC50 [3] was 65 nM and the IC50 (HEL) was over 100000 nM.

With `CC(Oc1cc(-c2ccccc2)cnc1N)c1c(Cl)ccc(F)c1Cl` (stereo not drawn) the IC50 (HEL) was over 100000 nM and the inhibition [9] was 7.15%.

For `CC(Nc1cc(-c2cnn(C3CCNCC3)c2)cnc1N)c1c(Cl)ccc(F)c1Cl` (stereo not drawn), the IC50 [3] was 126 nM and the IC50 (HEL) was 10800 nM.

With `CC(Oc1cc(-c2ccccc2)cnc1N)c1cc(F)ccc1Cl` (stereo not drawn) the IC50 (HEL) was over 100000 nM.

Compound `CC(Oc1cc(-c2cnn(C3CCNCC3)c2)cnc1N)C1CCCCC1` (stereo not drawn) has an IC50 (HEL) of 20900 nM.

With `CC(Oc1cc(-c2cccnc2)cnc1N)c1c(Cl)ccc(F)c1Cl` (stereo not drawn) the IC50 [3] was 3050 nM and the IC50 (HEL) was 20100 nM.

Work on `CC(Oc1cc(-c2cccc(N3CCNCC3)c2)cnc1N)c1cc(F)ccc1Cl` (stereo not drawn) yielded a Ratio IC50 (Homo sapiens [1]) of 107, an IC50 [2] of 120 nM and an IC50 [4] of 2790 nM. For the same compound, the Ratio IC50 (Homo sapiens [5]) was 4, the Ratio IC50 (Homo sapiens [6]) was 94 and the IC50 [7] was 2530 nM. For the same compound, the IC50 (HEL) was 7200 nM.

Work on `CCC(Oc1cc(-c2cnn(C3CCNCC3)c2)cnc1N)c1c(Cl)ccc(F)c1Cl` (stereo not drawn) yielded an IC50 (HEL) of 9980 nM.

Compound `CC(Oc1cc(-c2ccc(N3CCNCC3)nc2)cnc1N)c1c(Cl)ccc(F)c1Cl` (stereo not drawn) has an IC50 [3] of 804 nM and an IC50 (HEL) of 7760 nM.

For `CC(Oc1cc(-c2ccc(C3CCNCC3)cc2)cnc1N)c1cc(F)ccc1Cl` (stereo not drawn), the IC50 (HEL) was 16000 nM.

`COc1ccc(F)cc1C(C)Oc1cc(-c2cnn(C3CCNCC3)c2)cnc1N` (stereo not drawn) gave a Ratio IC50 (Homo sapiens [1]) of 528, an IC50 [2] of 1800 nM and an IC50 [4] of 1580 nM. For the same compound, the Ratio IC50 (Homo sapiens [5]) was 598, the Ratio IC50 (Homo sapiens [6]) was 264 and the IC50 [7] was 794 nM. The IC50 (HEL) was 4190 nM.

In the case of `CC(Oc1cc(-c2cnn(C3CCNCC3)c2)cnc1N)c1cc(F)ccc1Cl` (stereo not drawn), the Ratio IC50 (Homo sapiens [1]) is reported as 86, the IC50 [2] is reported as 660 nM and the Activity (Rattus norvegicus [10]) is reported as “Active”. The IC50 [3] was 6 nM, the IC50 [4] was 513 nM and the Activity (Rattus norvegicus [11]) was “Active”. The Ratio IC50 (Homo sapiens [5]) was 110, the Ratio IC50 (Homo sapiens [6]) was 216 and the IC50 [7] was 1300 nM. For the same compound, the IC50 (HEL) was 15000 nM, the Activity [12] was “Non-Toxic” and the Activity (Rattus norvegicus [13]) was “Dose-dependent effect”.

With `CC(Oc1cc(-c2cn[nH]c2)cnc1N)c1cc(F)ccc1Cl` (stereo not drawn) the Ratio IC50 (Homo sapiens [1]) was 60, the IC50 [2] was 82 nM and the IC50 [4] was 965 nM. The Ratio IC50 (Homo sapiens [5]) was 5, the Ratio IC50 (Homo sapiens [6]) was 91 and the IC50 [7] was 1450 nM. The IC50 (HEL) was 4850 nM.

In the case of `N#CC[C@H](C1CCCC1)n1cc(-c2ncnc3[nH]ccc23)cn1` [RUXOLITINIB], the IC50 (HEL) is reported as 7640 nM.

`CC(Oc1cc(-c2cnn(C3CCNCC3)c2)cnc1N)c1c(Cl)ccc(F)c1Cl` (stereo not drawn) showed an IC50 (HEL) of 6580 nM.

For `CC(Oc1cc(-c2cccc(C3CCNCC3)c2)cnc1N)c1cc(F)ccc1Cl` (stereo not drawn), the IC50 (HEL) was 6200 nM.

With `CN(Cc1cnc2nc(N)nc(N)c2n1)c1ccc(C(=O)N[C@@H](CCC(=O)O)C(=O)O)cc1` [METHOTREXATE] the Activity (Rattus norvegicus [14]) was “Active” and the Activity [15] was “Toxic”.
